Results reported in patent publication US20230227453A1 (priority 2020, published 2023).

Assays:
5HT2A sensor [1] = assay type: cell-based
5HT2A sensor [2] = assay type: cell-based; remark: listed apart in the source
rat cortical neurons = assay: Neurite Outgrowth Assay (Procedure B); assay type: cell-based; parameters: key: A: Statistically significant mean increase as a percent of DMSO control at 10 μM or less; B: No statistically significant mean increase as a percent of DMSO control at 10 μM or less; conditions: primary rat neuronal cultures, 72h, vs DMSO control, 10 μM or less
Description: Neurite Outgrowth Assay (Procedure B). Pregnant Wistar rats (Janvier; France) were used for the study. They were delivered 6 days before their use. Upon arrival at Neurofit animal facility, they were housed one per cage and maintained in a room with controlled temperature (21-22° C.) and a reversed light-dark cycle (12h/12h; lights on: 17:30-05:30; lights off: 05:30-17:30) with food and water available ad libitum.
Female Wistar rats of 17 days gestation were killed by cervical dislocation and the fetuses were removed from the uterus. Their brains were placed in ice-cold medium of Leibovitz (L15, Gibco, Fisher bioblock, France). Cortices were dissected and meninges were carefully removed. The cortical neurons were dissociated by trypsinization for 30 min at 37° C. (trypsin-EDTA, Gibco) in presence of 0.1 mg/ml DNAse I (Roche, France). The reaction was stopped by addition of Dulbecco's Modified Eagle Medium (DMEM; Gibco) with 10% of fetal bovine serum (FBS; Gibco). The suspension was triturated with a 10-ml pipette and using a needle syringe 21G and centrifuged at 350×g for 10 min at room temperature. The pellet of dissociated cells was resuspended in a medium consisting of Neurobasal (Gibco) supplemented with 2% B27 supplement (Gibco), 0.5 mM L-Glutamine (Gibco), an antibiotic-antimicotic mixture. Viable cells were counted in a Neubauer cytometer using the trypan blue exclusion test (Sigma). Cells were seeded at a density of 10000 cells per well in 96-well plate (Costar) precoated with poly-L-lysine. Test compound at different concentrations were added to the cultures. Donepezil (positive control) was tested at 250 nM.
After 72h (3 days) of plating, cultures were fixed with paraformaldehyde in PBS (4%, Sigma) for 30 min at 4° C. Then, cells were successively permeabilized with 0.1% Triton X100 for 30 min, saturated with PBS containing 3% of BSA and were incubated 1 h with anti-beta III tubulin antibody (Sigma) at 1/10 000 in PBS containing 0.5% of BSA. Cells were washed three times with PBS containing 0.5% of BSA, and they were incubated 1 h with goat anti-mouse antibody coupled with AF488 (Invitrogen A11001) diluted at 1/1000 in PBS containing 0.5% of BSA. Finally, nuclei were staining with DAPI 1 mg/ml at 1/1000 in PBS containing 0.5% of BSA. After rinsing with PBS, the plate was filmed and neurite networks were examined and analyzed using High-Content Screening (Celllnsight, Thermo Scientific). The average number of neurites per neuron and the average total length of neurites per neuron were the main parameters analyzed. Analysis of data was performed using analysis of variance (ANOVA). The Fisher's Protected Least Significant Difference test was used for multiple comparisons. A p value≤0.05 was considered significant. The software used is StatView 5.0 from SAS Institut.

5-HT2A [3] = target: T1, 5-HT2A (Homo sapiens, UniProt P28223); assay: Serotonin 5-HT2A in vitro cellular IPOne agonism assay; assay type: cell-based; parameters: host or cells: CHO-K1; conditions: CHO-K1 cells, IPOne HTRF, 60 min
T1 sequence (P28223 whole entry): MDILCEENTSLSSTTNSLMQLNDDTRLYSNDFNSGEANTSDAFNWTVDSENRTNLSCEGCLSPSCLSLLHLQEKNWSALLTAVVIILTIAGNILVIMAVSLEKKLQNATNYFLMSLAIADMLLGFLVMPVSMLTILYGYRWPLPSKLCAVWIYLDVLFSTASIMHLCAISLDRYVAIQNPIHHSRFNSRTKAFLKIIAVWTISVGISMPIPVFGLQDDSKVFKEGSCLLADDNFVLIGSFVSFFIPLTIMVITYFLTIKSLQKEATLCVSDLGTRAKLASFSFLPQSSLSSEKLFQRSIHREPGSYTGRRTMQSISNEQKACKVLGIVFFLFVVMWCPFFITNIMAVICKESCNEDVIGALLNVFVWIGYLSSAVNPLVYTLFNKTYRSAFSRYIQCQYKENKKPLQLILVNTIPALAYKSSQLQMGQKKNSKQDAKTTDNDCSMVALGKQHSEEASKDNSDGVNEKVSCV
Description: Serotonin 5-HT2A In Vitro Cellular IPOne Agonism Assay. The 5-HT2A IPOne HTRF assay was performed at Epics Therapeutics S.A. (Belgium, FAST-0505I) using conventional methods. Briefly, CHO-K1 cells expressing human recombinant 5-HT2A receptor grown to mid-log phase in culture media without antibiotics were detached with PBS-EDTA, centrifuged, and resuspended in medium without antibiotics buffer. 20,000 cells are distributed in a 96 well plate and incubated overnight at 37° C. with 5% CO2.
For agonist testing, the medium is removed and 20 μl of assay buffer plus 20 μl of test compound or reference agonist are added in each well. The plate is incubated for 60 min. at 37° C. with 5% CO2.
After addition of the lysis buffer containing IP1-d2 and anti-IP1 cryptate detection reagents, plates are incubated 1-hour at room temperature, and fluorescence ratios are measured according to the manufacturer specification, with the HTRF kit.

5-HT2A [4] = target: T1, 5-HT2A; assay: Serotonin 5-HT2A in vitro radioligand binding competition assay; parameters: purchased Epics Therapeutics S.A. (Belgium) FAST-0505B; host or cells: membrane extracts; conditions: radiotracer [3H]-DOI, membrane extracts
Description: Serotonin 5-HT2A In Vitro Radioligand Binding Competition Assay. The 5-HT2A radioligand binding competition assay was performed at Epics Therapeutics S.A. (Belgium, FAST-0505B) using conventional methods. Briefly, competition binding is performed in duplicate in the wells of a 96 well plate (Master Block, Greiner, 786201) containing binding buffer (optimized for each receptor), membrane extracts (amount of protein/well optimized for each receptor), radiotracer [^3H]-DOI (final concentration optimized for each receptor) and test compound. Nonspecific binding is determined by co-incubation with 200-fold excess of cold competitor. The samples are incubated in a final volume of 0.1 ml at a temperature and for a duration optimized for each receptor and then filtered over filter plates. Filters are washed six times with 0.5 ml of ice-cold washing buffer (optimized for each receptor) and 50 μl of Microscint 20 (Packard) are added in each well. The plates are incubated 15 min on an orbital shaker and then counted with a TopCount™ for 1 min/well.

C57BL/6J Mice = assay: Head twitch response (HTR) experiments; assay type: in vivo, mouse
Description: Head twitch response (HTR) experiments. All HTR experiments were performed by Transpharmation Ltd, London, UK. C57BL/6J Mice (9-10 weeks old) were obtained and housed following an IACUC approved protocol. The mice were habituated in the test cage for at least 30 min, injected intraperitoneally with compound (injection volume 5 ml/kg), returned to the empty test cage, and filmed for 20 minutes. Each video is scored for the number of head-twitches by a trained observer blinded to treatment condition.

Structure (SMILES)	activation of the 5HT2A sensor assay (5HT2A sensor [1])	Increase in Neurite Length (rat cortical neurons)	Increase in Neurite Number (rat cortical neurons)	EC50 (5-HT2A [3]) [nM]	IC50 (5-HT2A [4]) [nM]	further results
CCN(CC)C(=O)[C@@H]1C=C2c3cccc4[nH]c(Br)c(c34)C[C@H]2N(C)C1 [BOL148]	do not activate the 5HT2A sensor assay in agonist mode	–	–	–	–	competition with 5-HT in the 5HT2A sensor assay (5HT2A sensor [2]): compete with 5HT binding to 5HT2A
CNC(C)Cc1ccc2c(c1)OCO2 [L-MDMA]	do not activate the 5HT2A sensor assay in agonist mode	–	–	–	–	–
O=C(c1ccc(F)cc1)C1CCN(CCn2c(=O)[nH]c3ccccc3c2=O)CC1 [Ketanserin]	do not activate the 5HT2A sensor assay in agonist mode	–	–	–	–	competition with 5-HT in the 5HT2A sensor assay (5HT2A sensor [2]): compete with 5HT binding to 5HT2A
Cc1ccc2c3c([nH]c2n1)CCN(C1COC1)CC3 [Example 9, 2-methyl-7-(oxetan-3-yl)-5,6,7,8,9,10-hexahydropyrido[3′,2′:4,5]pyrrolo[2,3-d]azepine]	–	B	B	> 10000	> 10000	–
COc1ccc2c3c([nH]c2n1)CCN(C)CC3 [Example 1, 2-methoxy-7-methyl-5,6,7,8,9,10-hexahydropyrido[3′,2′:4,5]pyrrolo[2,3-d]azepine]	–	A	A	101 to 1000	1000 to 10000	Number of head twitches (C57BL/6J Mice; intraperitoneal, 10 mg/kg, filmed for 20 minutes): A (10 head twitches or less at 10 mg/kg)
COc1ccc2c3c(n(C)c2n1)CCN(C)CC3 [Example 3, 2-methoxy-7,10-dimethyl-5,6,7,8,9,10-hexahydropyrido[3′,2′:4,5]pyrrolo[2,3-d]azepine]	–	B	B	101 to 1000	1000 to 10000	–
COc1ccc2c(CCN(C)C)c[nH]c2c1 [Example 6-MeO-DMT]	do not activate the 5HT2A sensor assay in agonist mode	–	–	–	–	head-twitch response (HTR) (C57BL/6J Mice): does not produce a HTR; competition with 5-HT in the 5HT2A sensor assay (5HT2A sensor [2]): compete off 5-HT
COc1ccc2c3c([nH]c2n1)CCNCC3 [Example 2, 2-methoxy-5,6,7,8,9,10-hexahydropyrido[3′,2′:4,5]pyrrolo[2,3-d]azepine]	–	A	A	10 to 100	101 to 1000	–
COc1cc(CC(C)N)c(OC)cc1I (stereo not drawn) [DOI]	activate the 5HT2A sensor assay in agonist mode	–	–	–	–	–
CCN(CC)C(=O)[C@@H]1C=C2c3cccc4[nH]cc(c34)C[C@H]2N(C)C1 [LSD]	activate the 5HT2A sensor assay in agonist mode	–	–	–	–	–
COc1ccc2[nH]cc(CCN(C)C)c2c1 [Example 5-MeO-DMT]	activate the 5HT2A sensor assay in agonist mode	–	–	–	–	head-twitch response (HTR) (C57BL/6J Mice): produces a robust, dose-dependent head-twitch response
Cc1ccc2c3c([nH]c2n1)CCNCC3 [Example 8, 2-methyl-5,6,7,8,9,10-hexahydropyrido[3′,2′:4,5]pyrrolo[2,3-d]azepine]	–	B	B	101 to 1000	1000 to 10000	–
Cc1ccc2c3c([nH]c2n1)CCN(C)CC3 [Example 7, 2,7-dimethyl-5,6,7,8,9,10-hexahydropyrido[3′,2′:4,5]pyrrolo[2,3-d]azepine]	–	B	B	1000 to 10000	1000 to 10000	–
CCN(CC)CCc1c[nH]c2cc(F)ccc12 [Example 6-F-DET]	do not activate the 5HT2A sensor assay in agonist mode	–	–	–	–	competition with 5-HT in the 5HT2A sensor assay (5HT2A sensor [2]): compete with 5HT binding to 5HT2A
CN(C)CCc1c[nH]c2ccccc12 [DMT, N,N-dimethyltryptamine]	activate the 5HT2A sensor assay in agonist mode	–	–	–	–	–
Cc1ccc2c3c(n(C)c2n1)CCN(C1COC1)CC3 [Example 11, 2,10-dimethyl-7-(oxetan-3-yl)-5,6,7,8,9,10-hexahydropyrido[3′,2′:4,5]pyrrolo[2,3-d]azepine]	–	B	B	> 10000	> 10000	–
CN[C@H](C)Cc1ccc2c(c1)OCO2 [R-MDMA]	do not activate the 5HT2A sensor assay in agonist mode	–	–	–	–	–
